For assay [1], the system named is Escherichia coli. The assay can be described thus: Inhibition of Escherichia coli DNA methyltransferase at 15 uM after 30 mins.
Assay [2] has as its system ER1727. The assay can be described thus: Inhibition of M.HhaI DNA methyltransferase expressed in ER1727 cells at 15 uM after 30 mins. The note with it: Haemophilus haemolyticus. It is filed as cell-based.
In assay [3] the test system is Escherichia coli. The assay can be described thus: Inhibition of Escherichia coli DNA methyltransferase assessed as fluorescence quenching measured.
Assay [4] deals with T1, DNA adenine methylase (Escherichia coli K-12) (UniProt P0AEE8).
T1 sequence (whole entry): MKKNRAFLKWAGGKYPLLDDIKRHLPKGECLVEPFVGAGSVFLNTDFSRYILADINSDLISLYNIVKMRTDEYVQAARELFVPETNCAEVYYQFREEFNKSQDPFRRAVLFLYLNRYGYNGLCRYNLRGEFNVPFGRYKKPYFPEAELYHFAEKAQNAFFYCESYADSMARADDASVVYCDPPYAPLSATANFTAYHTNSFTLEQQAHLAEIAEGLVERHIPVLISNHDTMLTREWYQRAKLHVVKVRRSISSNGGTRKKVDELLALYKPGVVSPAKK
The assay can be described thus: Inhibition of Escherichia coli DNA adenine methyltransferase at 15 uM after 30 mins.

Assay [5] has as its system Haemophilus haemolyticus. Put plainly: Activation of M.HhaI DNA methyltransferase upto 16 uM.
The test system of assay [6] is Escherichia coli. Put plainly: Activation of Escherichia coli DNA methyltransferase upto 20 uM.
The nature of assay [7]: Inhibition of Escherichia coli DNA methyltransferase measured by secondary plot.
The subject of assay [8] is ER1727. The assay can be described thus: Inhibition of M.HhaI DNA methyltransferase expressed in ER1727 cells after 30 mins. The note with it: Haemophilus haemolyticus. It is filed as cell-based.
The subject of assay [9] is Escherichia coli. The assay can be described thus: Inhibition of Escherichia coli DNA methyltransferase after 30 mins.
A short description of assay [10]: Inhibition of Escherichia coli DNA methyltransferase measured by dixon plot.

Calls of active or inactive are those of the source. No cut-off for these calls is given here.

In the case of `NC(=O)CCSC[C@H]1O[C@@H](n2cnc3c(N)ncnc32)[C@H](O)[C@@H]1O`, the outcome in assay [1] and in assay [2] was inactive.

As to `O=[N+]([O-])c1cccc2c1ncn2[C@@H]1O[C@H](CO)[C@@H](O)[C@H]1O`, the outcome in assay [1] and in [2] was inactive.

As to `C=CCSC[C@H]1O[C@@H](n2cnc3c([N+](=O)[O-])cccc32)[C@H](O)[C@@H]1O`, the outcome in [1] and in assay [2] was inactive.

In the case of `C#CCSC[C@H]1O[C@@H](n2cnc3c(N)ncnc32)[C@H](O)[C@@H]1O`, the result in assay [1] and in [2] was inactive.

With `Nc1ncnc2c1ncn2[C@@H]1O[C@H](CCl)[C@@H](O)[C@H]1O`, the result in assay [1] and in assay [2] was inactive.

Consider `CC#CSC[C@H]1O[C@@H](n2cnc3c(N)ncnc32)[C@H](O)[C@@H]1O`, for which the outcome in assay [1] and in assay [2] was inactive.

Regarding `CCOC(=O)CCSC[C@H]1O[C@@H](n2cnc3c(N)ncnc32)[C@H](O)[C@@H]1O`, the result in assay [1], in [3] and in assay [2] was inactive.

As to `Nc1ncnc2c1ncn2[C@@H]1O[C@H](CSCC[C@H](N)C(=O)O)[C@@H](O)[C@H]1O`, the outcome in [1] and in assay [2] was Active.

On to `CSC[C@H]1O[C@@H](n2cnc3c(N)ncnc32)[C@H](O)[C@@H]1O`, for which the result in assay [1] and in [2] was inactive.

On to `C=C=CSC[C@H]1O[C@@H](n2cnc3c(N)ncnc32)[C@H](O)[C@@H]1O`, for which the result in [1] and in assay [2] was inactive.

Regarding `Nc1cccc2c1ncn2[C@@H]1O[C@H](CSCCC(=O)O)[C@@H](O)[C@H]1O`, the outcome in assay [4], in assay [5] and in assay [6] was Active. For the same compound, the Activity in assay [3] was determined as 5.66 µM.

As to `Nc1ncnc2c1ncn2[C@@H]1O[C@H](CSCCC(=O)O)[C@@H](O)[C@H]1O`, in [7], affinity was put at a Ki of 5 µM. Further, the result in assay [4] was Active. Besides, the Activity result in assay [8] is “Dose-dependent effect”; in [3] it was 22 µM; in assay [9], “Dose-dependent effect”. Moreover, the 50% inhibitory concentration (IC50) in assay [10] came out at 5 µM.

The values are drawn from ChEMBL document CHEMBL1142331, “Activation and inhibition of DNA methyltransferases by S-adenosyl-L-homocysteine analogues” (Bioorg Med Chem, 2008).
